Measurements reported in patent US6906198B1, “Antipicornaviral compounds, their preparation and use” (Agouron Pharmaceuticals, Inc., priority 1998, dated 2005).
Read-outs that look alike come from different tables or passages of the source.

Legend:
[1] = Cytotoxicity in mock-infected H1-HeLa cells (antirhinoviral assay, XTT); assay type: cell-based; settings: human, 50% cytotoxic dose
Description: (§1) H1-HeLa cells were infected with HRV-14 at a multiplicity of infection (m.o.i.) of 0.13 (virus particles/cell) or mock-infected with medium only. Infected or mock-infected cells were resuspended at 8×10^5 cells per mL, and incubated with appropriate concentrations of the compounds to be tested. Two days later, XTT/PMS was added to test plates and the amount of formazan produced was quantified spectrophotometrically at 450/650 nm. The EC50 value was calculated as the concentration of compound that increased the percentage of formazan production in compound-treated, virus-infected cells to 50% of that produced by compound-free, mock-infected cells. The 50% cytotoxic dose (CC50) was calculated as the concentration of compound that decreased the percentage of formazan produced in compound-treated, mock-infected cells to 50% of that produced by compound-free, mock-infected cells. The therapeutic index (TI) was calculated by dividing the CC50 value by the EC50 value.
(§2) All strains of human rhinovirus (HRV) for use in this assay were purchased from American Type Culture Collection (ATCC), except for HRV serotype-14 (produced from the infectious cDNA clone constructed by Dr. Robert Rueckert, Institute for Molecular Virology, University of Wisconsin, Madison, Wis.). HRV stocks were propagated and viral assays were performed in H1-HeLa cells (ATCC). Cells were grown in minimal essential medium with 10% fetal bovine serum, available from Life Technologies (Gaithersburg, Md.).

HRV-14 = assay: Antirhinoviral H1-HeLa cell culture assay (XTT), HRV-14; assay type: cell-based, human rhinovirus
Description: Antirhinoviral H1-HeLa Cell Culture Assay
In this cell protection assay, the ability of compounds to protect cells against HRV infection was measured by the XTT dye reduction method, which is described in Weislow et al., J. Natl. Cancer Inst. 1989, vol. 81, 577-586.
as §1, §2
The compounds were tested against control compounds WIN 51711, WIN 52084, and WIN 54954 (obtained from Sterling-Winthrop Pharmaceuticals), Pirodavir (obtained from Janssen Pharmaceuticals), and Pleconaril (prepared according to the method described in Diana et al., J. Med. Chem 1995, vol. 38, 1355). Antiviral data obtained for the test compounds are shown in Tables 1 and 3, where all data are for HRV serotype-14 unless otherwise noted in parentheses.

[2] = HRV serotype-14, H1-HeLa cells (Table 1), read-out: Cell Protection EC50
[3] = HRV serotype-14, H1-HeLa cells (Table 3), read-out: EC50

Structure (SMILES) | CC50 at 2 days [1] | further results
CCOC(=O)/C=C/[C@H](CN1CCNC1=O)NC(=O)[C@H](Cc1ccccc1)NC(=O)[C@H](CC(C)C)NC(=O)OCc1ccccc1 |  | melting point: 161 to 164 °C
CCOC(=O)/C=C/[C@H](CCC(N)=O)NC(=O)[C@H](Cc1ccccc1)NC(=O)[C@H](CC(C)C)NC(=O)c1cc(C)on1 [(A-1), Ethyl-3-((5′-Methylisoxazole-3′-carbonyl)-L-Leu-L-Phe-L-Gln)-E-Propenoate] | > 100 µM | melting point: 223 to 225 °C
CCOC(=O)/C=C/[C@H](CCC(N)=O)NC(=O)[C@H](Cc1ccccc1)NC(=O)[C@H](CC(C)C)NC(=O)c1ccno1 [(A-2), Ethyl-3-((Isoxazole-5′-carbonyl)-L-Leu-L-Phe-L-Gin)-E-Propenoate] | > 100 µM | 
CCOC(=O)/C=C/[C@H](CCC(N)=O)NC(=O)[C@H](Cc1ccc(C)cc1)NC(=O)[C@@H](NC(=O)c1cc(C)on1)C(C)(C)C [(A-3), Ethyl-3-((5′-Methylisoxazole-3′-carbonyl)-L-α-(t-Butyl-Gly)-L-(4-Me-Phe)-L-Gln)-E-Propenoate] | > 10 µM | 
CCOC(=O)/C=C/[C@H](CCC(N)=O)NC(=O)[C@H](Cc1ccc(F)cc1)NC(=O)[C@@H](NC(=O)c1cc(C)on1)C(C)(C)C [(A-4), Ethyl-3-((5′-Methylisoxazole-3′-carbonyl)-L-α-(t-Butyl-Gly)-L-(4-F-Phe)-L-Gln)-E-Propenoate] | > 100 µM | 
CCOC(=O)/C=C/[C@H](CCC(N)=O)NC(=O)[C@H](Cc1ccc(F)cc1)NC(=O)[C@@H](NC(=O)c1cc(C)on1)C(C)C [(A-6), Ethyl-3-[(5′-Methylisoxazole-3′-carbonyl)-L-Val-L-(4-F-Phe)-L-Gln]-E-Propenoate] | > 100 µM | 
CCOC(=O)/C=C/[C@H](CCC(N)=O)NC(=O)[C@H](Cc1ccc(F)cc1)N(C)C(=O)[C@H](Cc1c[nH]cn1)NC(=O)c1cc(C)on1 [(A-9), Ethyl-3-{(5′-Methylisoxazole-3′-carbonyl)-L-His-NCH3-L-(4-F-Phe)-L-Gln}-E-Propenoate] | > 100 µM | 
CCOC(=O)/C=C/[C@H](CCC(N)=O)NC(=O)[C@H](Cc1ccccc1)N(C)C(=O)[C@H](CC(C)C)NC(=O)c1cc(C)on1 [(A-10), Ethyl-3-((5′-Methylisoxazole-3′-carbonyl)-L-Leu-NCH3-L-Phe-L-Gln}-E-Propenoate] | > 100 µM | EC50 (HRV-14; Rhinovirus B, HRV14, HRV serotype-14, H1-HeLa cells (Table 1), read-out: Cell Protection EC50): 0.14 µM; EC50 (HRV-14; Rhinovirus B, HRV14, HRV serotype-14, H1-HeLa cells (Table 3), read-out: EC50): 0.14 µM
CCOC(=O)/C=C/[C@H](CCC(N)=O)NC(=O)[C@H](Cc1ccc(F)cc1)N(C)C(=O)[C@H](Cc1ccc2ccccc2c1)NC(=O)c1cc(C)on1 [(A-11), Ethyl-3-{(5′-Methylisoxazole-3′-carbonyl)-L-(2-Naphth)-NCH3-L-(4-F-Phe)-L-Gln}-E-Propenoate] | 50 µM | 
CCOC(=O)/C=C/[C@H](CCC(N)=O)NC(=O)[C@H](Cc1ccc(F)cc1)N(C)C(=O)[C@H](CC(C)C)NC(=O)c1cc(C)on1 [(A-12), Ethyl-3-{(5′-Methylisoxazole-3′-carbonyl)-L-Leu-NCH3-L-(4-F-Phe)-L-Gln}-E-Propenoate] | > 100 µM | 
CCOC(=O)/C=C/[C@H](CCC(N)=O)NC(=O)[C@H](Cc1ccc(F)cc1)N(C)C(=O)[C@H](Cc1cccc2ccccc12)NC(=O)c1cc(C)on1 [(A-13), Ethyl-3-{(5′-Methylisoxazole-3′-carbonyl)-L-(1-Naphth)-NCH3-L-(4-F-Phe)-L-Gln}-E-Propenoate] | > 10 µM | 
CCOC(=O)/C=C/[C@H](CCC(N)=O)NC(=O)[C@H](Cc1ccccc1)NC(=O)[C@@H](NC(=O)c1cccs1)C(C)(C)C [(A-14)] |  | EC50 (HRV-14; [2]): 0.48 µM; EC50 (HRV-14; [3]): 0.48 µM
CC(C)[C@H](NC(=O)C1SCCS1)C(=O)N[C@@H](Cc1ccc(F)cc1)C(=O)N[C@H](/C=C/C(=O)OCc1cccnc1)CCC(N)=O [(A-18)] |  | EC50 (HRV-14; [2]): 1.5 µM; EC50 (HRV-14; [3]): 1.5 µM
CCOC(=O)/C=C/[C@H](CCC(N)=O)NC(=O)[C@H](Cc1ccccc1)NC(=O)[C@H](CC(C)C)NC(=O)[C@@H]1C=CCN1 [(A-19)] |  | EC50 (HRV-14; [2]): 25.1 µM; EC50 (HRV-14; [3]): 25.1 µM
CCOC(=O)/C=C/[C@H](CCC(N)=O)NC(=O)[C@H](Cc1ccccc1)NC(=O)[C@H](CC(C)C)NC(=O)c1cc(C)oc1C [(A-20)] |  | EC50 (HRV-14; [2]): 12.6 µM; EC50 (HRV-14; [3]): 12.6 µM
CCOC(=O)/C=C/[C@H](CCC(N)=O)NC(=O)[C@H](Cc1ccccc1)NC(=O)[C@H](CC(C)C)NC(=O)c1nc(C)c[nH]1 [(A-21)] |  | EC50 (HRV-14; [2]): 2.5 µM; EC50 (HRV-14; [3]): 2.5 µM
CCOC(=O)/C=C/[C@H](C[C@@H]1CCNC1=O)NC(=O)[C@H](Cc1ccccc1)NC(=O)[C@H](CC(C)C)NC(=O)OCc1ccccc1 [(A-24), Ethyl-3-{Cbz-L-Leu-L-Phe-L-((S)-Pyrrol-Ala)}-E-Propenoate] | > 100 µM | 
CCOC(=O)/C=C/[C@H](C[C@@H]1CCNC1=O)NC(=O)[C@H](Cc1ccccc1)NC(=O)[C@@H](NC(=O)OCc1ccccc1)C(C)C [(A-25), Ethyl-3-{Cbz-L-Val-L-Phe-L-((S)-Pyrrol-Ala)}-E-Propenoate] | > 100 µM | 
CCOC(=O)/C=C/[C@H](C[C@@H]1CCCNC1=O)NC(=O)[C@H](Cc1ccccc1)NC(=O)[C@H](CC(C)C)NC(=O)OCc1ccccc1 [(A-26), Ethyl-3-{Cbz-L-Leu-L-Phe-L-((S)-Piper-Ala)}-E-Propenoate] | > 100 µM | 
CCOC(=O)/C=C/[C@H](C[C@H]1CCNC1=O)NC(=O)[C@H](Cc1ccccc1)NC(=O)[C@H](CC(C)C)NC(=O)OCc1ccccc1 [(A-27), Ethyl-3-{Cbz-L-Leu-L-Phe-L-((R)-Pyrrol-Ala)}-E-Propenoate] | > 100 µM | 
CCOC(=O)/C=C/[C@H](CCC(N)=O)NC(=O)[C@@H](CC(=O)[C@@H](NC(=O)c1cc(C)on1)C(C)C)Cc1ccc(F)cc1 [(B-1), Ethyl-3-{(5′-Methylisoxazole-3′-carbonyl)-L-ValΨ(COCH2)-L-(4-F-Phe)-L-Gln}-E-Propenoate] | > 100 µM | melting point: 220 °C (dec.)
Cc1cc(C(=O)N[C@H](C(=O)C[C@@H](Cc2ccc(F)cc2)C(=O)N[C@H](/C=C2\CCOC2=O)C[C@@H]2CCNC2=O)C(C)C)no1 [(B-3), 2-{(5′-Methylisoxazole-3′-carbonyl)-L-ValΨ(COCH2)-L-(4-F-Phe)-L-((S)-Pyrrol-Ala)}-E-(α-Vinyl-γ-Butyrolactone)] | > 100 µM | 
CCOC(=O)/C=C/[C@H](C[C@@H]1CCCNC1=O)NC(=O)[C@@H](CC(=O)[C@@H](NC(=O)c1cc(C)on1)C(C)C)Cc1ccc(F)cc1 [(B-4), Ethyl-3-{(5′-Methylisoxazole-3′-carbonyl)-L-ValΨ(COCH2)-L-(4-F-Phe)-L-((S)-Piper-Ala)}-E-Propenoate] | > 100 µM | 
CCOC(=O)/C=C/[C@H](CCC(N)=O)NC(=O)[C@H](Cc1ccc(F)cc1)OC(=O)[C@@H](NC(=O)c1cc(C)on1)C(C)C [(C-1), Ethyl-3-{(5′-Methylisoxazole-3′-carbonyl)-L-Val-O-L-(4-F-Phe)-L-Gln}-E-Propenoate] | > 10 µM | 
CCOC(=O)/C=C/[C@H](C[C@@H]1CCNC1=O)NC(=O)[C@H](Cc1ccc(F)cc1)OC(=O)[C@@H](NC(=O)c1cc(C)on1)C(C)C [(C-2), Ethyl-3-{(5′-Methylisoxazole-3′-carbonyl)-L-Val-O-L-(4-F-Phe)-L-((S)-Pyrrol-Ala)}-E-Propenoate] | > 10 µM | 
CC(C)C[C@H](NC(=O)OCc1ccccc1)C(=O)N[C@@H](Cc1ccccc1)C(=O)N[C@H](/C=C/c1ccno1)CCC(N)=O [Comparison Compound #1, 5-(3′-(Cbz-L-Leu-L-Phe-L-Gln)-E-Propene)-Isoxazole, reference compound] | > 320 µM | 
CCOC(=O)/C=C/[C@H](CCC(N)=O)NC(=O)[C@H](Cc1ccccc1)NC(=O)[C@H](CC(C)C)NC(=O)OCc1ccccc1 [Comparison Compound #2, Ethyl-3-(Cbz-L-Leu-L-Phe-L-Gln)-E-Propenoate] | > 320 µM | melting point: 219 to 221 °C
